For assay [1], the system named is lipoxygenase (LTB4 or 5HETE synthesis). Nature of the assay: inhibition of LTB4 and 5-HETE synthesis by rat glycogen-elicited polymorphonuclear leukocytes. To be noted: Leukocyte, rat PMN; for inhibition at 10 µM: + with * denotes potentiation. In kind it is cell-based, rat (female Wistar). The source says: This is especially true with respect to 5,12-diHETE, which is also denoted as LTB4 [see Ford-Hitchinson, J. Roy. Soc. Med., 74, 831 (1981)]. Compounds which inhibit the PLA2 -mediated release of arachidonic acid thereby effectively prevent the oxidation of arachidonic acid to the various leukotriene products via the lipoxygenase cascade. Accordingly, the specificity of action of PLA2 inhibitors can be determined by the activity of test compounds in this assay, which measures the ability of compounds to inhibit the synthesis of LTB4 and 5-HETE by rat glycogen-elicited polymorphonuclear leukocytes (PMN) in the presence of exogenous substrate.
(§1) Rat polymorphonuclear leukocytes (PMNs) are obtained from female Wistar rats (150-200 g) which receive an injection of 6% glycogen (10 ml i.p.). Rats are sacrificed 18-24 hours post injection by CO2 asphyxiation and the elicited cells are harvested by peritoneal lavage using physiological saline (0.9% NaCl). The exudate is centrifuged at 400 xg for 10 minutes. The supernatant fluid is discarded and the cell pellet is resuspended to a concentration of 2.0×10^7 cells/mL in HBSS containing Ca^++ and Mg^++ and 10 μM L-cysteine.
(§2) To 1 mL aliquots of cell suspension, test drugs or vehicle are added, then preincubated at 37° C. for 10 minutes. A23187 (1 μM), [^3 H]-AA (3.0 μCi/mL) and unlabeled AA (1 μM) are then added and the samples are further incubated for 10 minutes. The reaction is terminated by centrifugation and pelleting cells. Supernatants are then analyzed by HPLC analysis on a 15 cm×4.6 mm ID supelcosil LC-18 (Supelco)(3M) column, using a two solvent system at a flow rate of 1.4 mL total flow as follows:
Injections: 140 μL of each supernatant is injected directly onto column and ^3 H arachidonic acid metabolites are monitored using an on-line radioactivity detector (Ramona, IN/US, Fairfield, N.J.).
Co-chromatography with standard [^3 H] leukotriene B4 (LTB4) in medium of stimulated PMN exposed to drug is compared to that found in medium of stimulated cells exposed to no drug, generating percent inhibition.
Results are expressed as percent inhibition at a given compound dose or as an IC50 value.

Assay [2] relates to LTB4 biosynthesis in purified human neutrophils. Nature of the assay: LTB4 biosynthesis in human polymorphonuclear neutrophils (in vitro phospholipase A2 assay). In kind it is cell-based. The following applies: Neutrophil, human PMN. Here is the method: (§3) The compounds of the invention are tested in an in vitro phospholipase A2 assay to determine the ability of the compounds to inhibit the biosynthesis of platelet-activating factor and LTB4 in purified human neutrophils.
(§4) A leukocyte enriched blood sample obtained from a healthy donor is procured by leukophoresis using a Haemonetics model 30+ blood processor (Biological Specialties, Inc., Lansdale, Penn.). The top "platelet-rich" layer is removed after a low speed spin (35 xg, 15 min, 25° C.) of the sample. The remaining cell suspension is centrifuged (400 xg, 10 min, 25° C.) to sediment the remaining cells. The supernatant is discarded and the cell pellet resuspended in 120 ml HBSS (without Ca^++ /Mg^++). The cell suspension is subjected to ficoll-hypaque sedimentation (Histopaque 1077, 400 xg, 30 min, 25° C.). Contaminating erythrocytes are lysed by hypotonic shock (1 min). The cells are then washed once with 40 ml of HBSS and resuspended with HBSS (without Ca^++ /Mg^++) to a concentration of 2.5×10^7 cells/ml for further use. Greater than 95% purity is obtained, as assessed by microscopic examination.
(§5) One ml of human PMN (2.5×10^7 cells/ml) is incubated with vehicle or drugs (10 μl) for 10 minutes at 30° C. After preincubation, an equal volume of HBSS (1 ml) containing 2.4 mM CaCl2, 6 μM calcium ionophore A23187 and 50 μCi [^3 H]-acetate is then incubated at 30° C. for 15 minutes. An aliquot (100 μl) of the reaction mixture is taken out and mixed with 900 μl of 15% ethanol. LTB4 is extracted by using solid phase extraction on reverse phase C18 columns to remove excess [^3 H]-acetate and PAD. The C18 column is prewashed once with 2 ml of ethanol and water. The sample aliquot is acidified with 0.1N HCl to pH 3 before applying to the column. The column is then washed with 2 ml of water followed by 2 ml of 15% ethanol and 2 ml of petroleum ether to remove excess labeled acetate. The sample is eluted with 2 ml of ethyl acetate. The collected samples are dried with nitrogen and resuspended in 0.5 ml RIA buffer. The quantity of LTB4 in the sample is obtained from RIA determination. For PAF determination, the reaction is terminated by addition of 5 ml chloroform:methanol:acetic acid (2:1:0.04, v/v/v). [^3 H]-PAF is obtained by Bligh and Dyer extraction. The chloroform phase is removed and dried under nitrogen. The residue is redissolved in 75 μl of chloroform:methanol (80:20, v/v). [^3 H]-PAF is resolved from other phospholipids by TLC on RPC18 plates with a solvent system of chloroform:methanol:water (2:3:1, v/v/v) and is quantitated using a Berthold automated TLC linear analyzer.
(§6) Data presented are the mean +/- s.d. of the values relative to control A23187 stimulated cells for each experiment assayed in triplicate. Percent inhibition when used is calculated as:
(§7) % Inhibition=100-[(x.div.Control)×100].
(§8) Dose response analysis is performed by non-linear regression analysis for curve fitting and IC50 determination.

The subject of assay [3] is cyclooxygenase (PGE2 or TxB2 synthesis). Nature of the assay: inhibition of synthesis of cyclooxygenase products PGE2 and TxB2 by rat polymorphonuclear leukocytes. In kind it is cell-based, rat (female Wistar). To be noted: Leukocyte, rat PMN; for inhibition at 10 µM: + with * denotes potentiation. As to the method: as §1, §2
In this assay, the procedure of Example 58 is carried out as described. However, in order to determine cyclooxygenase activity, the samples are co-chromatographed with authentic reference [^3 H]-TxB2 or [^3 H]-PGE2.
The results are calculated as in Example 58 and presented below: […]

The subject of assay [4] is platelet-activating factor (PAF) biosynthesis in human polymorphonuclear neutrophils (PMN). Nature of the assay: platelet-activating factor biosynthesis in human polymorphonuclear neutrophils (in vitro phospholipase A2 assay). Type of assay: cell-based. To be noted: Polymorphonuclear neutrophil, human PMN. Here is the method: as §3, §4, §5, §6, §7, §8

14 compounds from patent US5242945A, “Tetronic and thiotetronic acid derivatives as phospholipase A2 inhibitors” (American Home Products Corporation, priority 1991, dated 1993) can be followed below.

Broadly, the inhibition is the change of the read-out against control, counted positive when it falls.

Molecules are shown by their SMILES. Read-outs that look alike come from different tables or passages of the source.

With `CCCC/C=C\CCCCCCCC(=O)C1=C(O)COC1=O` [Example 25, 4-Hydroxy-3-((Z)-1-oxo-9-tetradecenyl)-2(5H)-furanone], the inhibition at 10 µM in assay [1] (read-out: % Inhibition 5-HETE) turned out to be 81%; in assay [1] (read-out: % Inhibition LTB4) it was 8%; in assay [2], 74%; in assay [3] (read-out: % Inhibition PGE2), 68%; in assay [3] (read-out: % Inhibition TxB2), 8%. Also, the inhibition at 50 µM is 97% in assay [2] and 47% in assay [4].
Turning to `CCCCCCCC/C=C\CCCCCCCC(=O)C1=C(O)COC1=O` [Example 9, (Z)-4-Hydroxy-3-(1-oxo-9-octadecenyl)-2(5H)-furanone], the inhibition at 10 µM is 1% in assay [1] (read-out: % Inhibition LTB4) and 31% in assay [3] (read-out: % Inhibition TxB2). Further, the inhibition at 50 µM in assay [2] came to 100%; in assay [4], 56%.
As for `CCCCCCCCCC(=O)C1=C(O)COC1=O` [Example 1, 4-Hydroxy-3-(1-oxodecyl)-2(5H)-furanone], the figures for the inhibition at 50 µM in assay [1] (at 50 μM), in assay [3] (at 50 μM) and in assay [4] were 60%, 71% and 68%, respectively. Further, the results for the inhibition at 10 µM in assay [2] and in assay [4] were 37% and 13%, respectively. Besides, the inhibition at 25 µM in assay [2] was 46%; in assay [4], 32%.
Consider `CCCCC/C=C\C/C=C\CCCCCCCC(=O)C1=C(O)CSC1=O` [Example 46, 4-Hydroxy-3[(Z,Z)-1-oxo-9,12-octadecadienyl]-2(5H)-thiophenone], for which the inhibition at 50 µM in assay [2] came to 39%. Also, in assay [4], the inhibition at 25 µM was found to be 7% and the inhibition at 50 µM was determined as 50%.
On to `CCCCCC1CC1CC1CC1CCCCCCCC(=O)C1=C(O)COC1=O` (stereo not drawn) [Example 22, 4-Hydroxy-3-[1-oxo-8-[2-[(2-pentylcyclopropyl)methyl]cyclopropyl]octyl]-2(5H)-furanone], for which, in assay [2], the inhibition at 10 µM was found to be 93% and the inhibition at 25 µM stood at 91%. For the same compound, in assay [4], the inhibition at 10 µM was 24%, the inhibition at 25 µM was determined as 49% and the inhibition at 50 µM was determined as 67%.
Turning to `CCCC/C=C\CCCCCCCC(=O)C1=C(O)CSC1=O` [Example 48, 4-Hydroxy-3-[(Z)-1-oxo-9-tetra-decenyl]-2(5H)-thiophenone], the inhibition at 25 µM in assay [2] was found to be 86%; in assay [4] it was 76%.
`CCCCCCCCCCC/C=C\CCCCC(=O)C1=C(O)COC1=O` [Example 18, (Z)-4-Hydroxy-3-(1-oxo-6-octadecenyl)-2(5H)-furanone]: the inhibition at 25 µM in assay [2] turned out to be 83%. Moreover, in assay [4], the inhibition at 25 µM was found to be 53% and the inhibition at 50 µM stood at 47%.
Regarding `O=C(CCCCCCC/C=C\c1ccc(Cl)cc1)C1=C(O)COC1=O` [Example 35, 3-[(Z)-10-(4-chlorophenyl)-1-oxo-9-decenyl]-4-hydroxy-2(5H)-furanone], in assay [2], the inhibition at 10 µM amounted to 81.6% and the inhibition at 50 µM stood at 98.5%. Further, the inhibition at 50 µM in assay [4] was found to be 5%.
`CCCCC/C=C\C/C=C\C/C=C\CCCCC(=O)C1=C(O)CSC1=O` [Example 50, 4-Hydroxy-3-[(Z,Z,Z)-1-oxo-6,9,12-octadecatrienyl]-2(5H)-thiophenone]: in assay [2], the inhibition at 25 µM turned out to be 100%. Also, the inhibition at 10 µM in assay [4] worked out at 42%.
Take `CCCCCCCCCCC/C=C\CCCCC(=O)C1=C(O)CSC1=O` [Example 51, 4-Hydroxy-3-[(Z)-1-oxo-6-octadecenyl]-2(5H)-thiophenone]: the inhibition at 50 µM in assay [4] was found to be 70%.
Regarding `CCCCC/C=C\C/C=C\CCCCCCCC(=O)C1=C(O)COC1=O` [Example 14, (Z,Z)-4-Hydroxy-3-(1-oxo-9,12-octadecadienyl)-2(5H)-furanone], in assay [2], the inhibition at 10 µM was found to be 30% and the inhibition at 25 µM is -5%. Moreover, in assay [4], the inhibition at 10 µM was 16%, the inhibition at 25 µM was 19% and the inhibition at 50 µM came out at 64%.
Take `CCCCC/C=C\C/C=C\C/C=C\CCCCC(=O)C1=C(O)COC1=O` [Example 20, (Z,Z,Z)-4-Hydroxy-3-(1-oxo-6,9,12-octadecatrienyl)-2(5H)-furanone]: the inhibition at 50 µM turned out to be 95% in assay [2] and 83% in assay [4].
In the case of `CCCCCCCC/C=C\CCCCCCCC(=O)C1=C(O)CSC1=O` [Example 47, 4-Hydroxy-3-[(Z)-1-oxo-9-octadecenyl]-2(5H)-thiophenone], the inhibition at 50 µM turned out to be 47% in assay [2] and 35% in assay [4].
The corresponding values for `CC/C=C\C/C=C\C/C=C\CCCCCCCC(=O)C1=C(O)COC1=O` [Example 15, (Z,Z,Z)-4-Hydroxy-3-(1-oxo-9,12,15-octadecatrienyl)-2(5H)-furanone] are 68% and 21%.
